The record followed here is patent US12552783B2, “Modulators of proteolysis and associated methods of use” (Arvinas Operations, Inc., priority 2018, dated 2026).

Each structure is given as a SMILES string.

The assay deals with KRas (Homo sapiens, UniProt P01116, G12C). As to the kind of experiment: KRas degradation in NCI-H2030 cells by Western blot, normalized to GAPDH (data of Table 14). To be noted: for Dmax: NCI-H2030. The class given is cell-based. Details: host or cells: NCI-H2030. A digest of the protocol:
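After a day without serum, the G12C-homozygous cells received each compound at 0.3, 1 and 3 μM, with VHL-based degraders left for 24 h and other compounds for 72 h. DC50 is the concentration giving half-maximal degradation and DMax the maximal degradation, both taken from KRas levels normalized to GAPDH.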

For the compound `C=CC(=O)N1CCN(c2nc(O[C@H](C)CN3CCC(OCCOCCNc4cccc5c4C(=O)N(C4CCC(=O)NC4=O)C5=O)CC3)nc3c2CCN(c2cc(O)cc4ccccc24)C3)CC1` (some centres unmarked) [compound 412], the “Percent Degradation at Indicated Concentration (μM)” value (shortened to “Percent Degradation”) (H2030 cells, 0.3 μM) was “C (Percent Degradation: C ≤ 35)”; the “Percent Degradation” value (H2030 cells, 1 μM) is given as “C (Percent Degradation: C ≤ 35)”; the “Percent Degradation” value (H2030 cells, 3 μM) is recorded as “C (Percent Degradation: C ≤ 35)”.

Regarding `C=CC(=O)N1CCN(c2nc(O[C@H](C)CN3CCC(OCCOCCOCCNc4cccc5c4C(=O)N(C4CCC(=O)NC4=O)C5=O)CC3)nc3c2CCN(c2cc(O)cc4ccccc24)C3)CC1` (stereo partly drawn) [compound 413, 4-((2-(2-(2-((1-((R)-2-((4-(4-acryloylpiperazin-1-yl)-7-(3-hydroxynaphthalen-1-yl)-5,6,7,8-tetrahydropyrido[3,4-d]pyrimidin-2-yl)oxy)propyl)piperidin-4-yl)oxy)ethoxy)ethoxy)ethyl)amino)-2-(2,6-dioxopiperidin-3-yl)isoindoline-1,3-dione], the “Percent Degradation” value reads like this: (H2030 cells, 0.3 μM) “C (Percent Degradation: C ≤ 35)”; (H2030 cells, 1 μM) “C (Percent Degradation: C ≤ 35)”; (H2030 cells, 3 μM) “C (Percent Degradation: C ≤ 35)”.

As for `C=CC(=O)N1CCN(c2nc(O[C@H](C)CN3CCC(OCCOCCOCCOCCNc4cccc5c4C(=O)N(C4CCC(=O)NC4=O)C5=O)CC3)nc3c2CCN(c2cc(O)cc4ccccc24)C3)CC1` (some centres unmarked) [compound 414], the “Percent Degradation” value is “C (Percent Degradation: C ≤ 35)” (H2030 cells, 0.3 μM); “C (Percent Degradation: C ≤ 35)” (H2030 cells, 1 μM); “C (Percent Degradation: C ≤ 35)” (H2030 cells, 3 μM).

On to `C=CC(=O)N1CCN(c2nc(O[C@H](C)CN3CCC(OCCOc4ccc5c(c4)C(=O)N(C4CCC(=O)NC4=O)C5=O)CC3)nc3c2CCN(c2cc(O)cc4ccccc24)C3)CC1` (stereo partly drawn) [compound 416, 5-(2-((1-((R)-2-((4-(4-acryloylpiperazin-1-yl)-7-(3-hydroxynaphthalen-1-yl)-5,6,7,8-tetrahydropyrido[3,4-d]pyrimidin-2-yl)oxy)propyl)piperidin-4-yl)oxy)ethoxy)-2-(2,6-dioxopiperidin-3-yl)isoindoline-1,3-dione], for which the “Percent Degradation” value is, setting by setting: (H2030 cells, 0.3 μM) “C (Percent Degradation: C ≤ 35)”; (H2030 cells, 1 μM) “C (Percent Degradation: C ≤ 35)”; (H2030 cells, 3 μM) “C (Percent Degradation: C ≤ 35)”.

As for `C=CC(=O)N1CCN(c2nc(O[C@H](C)CN3CCC(OCCOCCOCCOc4ccc5c(c4)C(=O)N(C4CCC(=O)NC4=O)C5=O)CC3)nc3c2CCN(c2cc(O)cc4ccccc24)C3)CC1` (stereo partly drawn) [compound 418, 5-(2-(2-(2-((1-((R)-2-((4-(4-acryloylpiperazin-1-yl)-7-(3-hydroxynaphthalen-1-yl)-5,6,7,8-tetrahydropyrido[3,4-d]pyrimidin-2-yl)oxy)propyl)piperidin-4-yl)oxy)ethoxy)ethoxy)ethoxy)-2-(2,6-dioxopiperidin-3-yl)isoindoline-1,3-dione], the “Percent Degradation” value was “C (Percent Degradation: C ≤ 35)” (H2030 cells, 0.3 μM); “C (Percent Degradation: C ≤ 35)” (H2030 cells, 1 μM); “C (Percent Degradation: C ≤ 35)” (H2030 cells, 3 μM).

For the compound `C=CC(=O)N1CCN(c2nc(O[C@H](C)CN3CCC(OCCOCCOCCOCCOc4ccc5c(c4)C(=O)N(C4CCC(=O)NC4=O)C5=O)CC3)nc3c2CCN(c2cc(O)cc4ccccc24)C3)CC1` (stereo partly drawn) [compound 419, 5-(2-(2-(2-(2-((1-((R)-2-((4-(4-acryloylpiperazin-1-yl)-7-(3-hydroxynaphthalen-1-yl)-5,6,7,8-tetrahydropyrido[3,4-d]pyrimidin-2-yl)oxy)propyl)piperidin-4-yl)oxy)ethoxy)ethoxy)ethoxy)ethoxy)-2-(2,6-dioxopiperidin-3-yl)isoindoline-1,3-dione], the “Percent Degradation” value reads like this: (H2030 cells, 0.3 μM) “C (Percent Degradation: C ≤ 35)”; (H2030 cells, 1 μM) “C (Percent Degradation: C ≤ 35)”; (H2030 cells, 3 μM) “C (Percent Degradation: C ≤ 35)”.

For the compound `C=CC(=O)N1CCN(c2nc(O[C@H](C)CN3CCC(OCCOCCOc4ccc5c(c4)CN(C4CCC(=O)NC4=O)C5=O)CC3)nc3c2CCN(c2cc(O)cc4ccccc24)C3)CC1` (stereo partly drawn) [compound 422, 3-(5-(2-(2-((1-((R)-2-((4-(4-acryloylpiperazin-1-yl)-7-(3-hydroxynaphthalen-1-yl)-5,6,7 ,8-tetrahydropyrido[3,4-d]pyrimidin-2-yl)oxy)propyl)piperidin-4-yl)oxy)ethoxy)ethoxy)-1-oxoisoindolin-2-yl)piperidine-2,6-dione], the “Percent Degradation” value runs as follows: (H2030 cells, 0.3 μM) “C (Percent Degradation: C ≤ 35)”; (H2030 cells, 1 μM) “C (Percent Degradation: C ≤ 35)”; (H2030 cells, 3 μM) “C (Percent Degradation: C ≤ 35)”.

Turning to `C=CC(=O)N1CCN(c2nc(O[C@H](C)CN3CCC(OCCOCCOCCOc4ccc5c(c4)CN(C4CCC(=O)NC4=O)C5=O)CC3)nc3c2CCN(c2cc(O)cc4ccccc24)C3)CC1` (stereo partly drawn) [compound 423, 3-(5-(2-(2-(2-((1-((R)-2-((4-(4-acryloylpiperazin-1-yl)-7-(3-hydroxynaphthalen-1-yl)-5,6,7,8-tetrahydropyrido[3,4-d]pyrimidin-2-yl)oxy)propyl)piperidin-4-yl)oxy)ethoxy)ethoxy)ethoxy)-1-oxoisoindolin-2-yl)piperidine-2,6-dione], the “Percent Degradation” value is listed as “C (Percent Degradation: C ≤ 35)” (H2030 cells, 0.3 μM); “C (Percent Degradation: C ≤ 35)” (H2030 cells, 1 μM); “C (Percent Degradation: C ≤ 35)” (H2030 cells, 3 μM).

As usually defined, the Dmax is the largest share of the target that was removed. Higher therefore signals a fuller loss of target. Consider `C=CC(=O)N1CCN(c2nc(NCCC(=O)N(C)CCOc3ccc4c(c3)C(=O)N(C3CCC(=O)NC3=O)C4=O)nc3c(F)c(-c4cc(O)cc5ccccc45)c(Cl)cc23)CC1` (centres unmarked) [compound 467, 3-((4-(4-acryloylpiperazin-1-yl)-6-chloro-8-fluoro-7-(3-hydroxynaphthalen-1-yl)quinazolin-2-yl)amino)-N-(2-((2-(2,6-dioxopiperidin-3-yl)-1,3-dioxoisoindolin-5-yl)oxy)ethyl)-N-methylpropanamide], for which the Dmax was at most 35%. In addition, the “Percent Degradation” value (H2030, 0.3 μM) was “C (Percent Degradation: C ≤ 35)”. Also, the “Percent Degradation” value (H2030, 1 μM) is “C (Percent Degradation: C ≤ 35)”. Moreover, for the setting “H2030, 3 μM”, the “Percent Degradation” value was “C (Percent Degradation: C ≤ 35)”.

With `CN(C)C(=O)CCNc1nc(N2CCN(C(=O)/C=C/CCOc3ccc4c(c3)C(=O)N(C3CCC(=O)NC3=O)C4=O)CC2)c2cc(Cl)c(-c3cc(O)cc4ccccc34)c(F)c2n1` (centres unmarked) [compound 468], the Dmax is at most 35%. Also, the “Percent Degradation” value (H2030, 0.3 μM) was “C (Percent Degradation: C ≤ 35)”. The “Percent Degradation” value (H2030, 1 μM) is “C (Percent Degradation: C ≤ 35)”. For the same compound, the “Percent Degradation” value (H2030, 3 μM) is “C (Percent Degradation: C ≤ 35)”.
